Each block holds one substance with its values, some of them ahead of it. No end group written: not given here.
Experiments:
[1] = system: ovariectomized (OVX) rats; experiment: Body weight, serum chemistries, kidney calcium and deaths in ovariectomized rats
Description: All studies were performed using virus- and antibody-negative female Sprague-Dawley rats from Harlan Sprague-Dawley (Indianapolis, Ind.). All rats underwent sham ovariectomy or ovariectomy at 5 months of age. Studies began at six months of age, one month following ovariectomy or sham operation. Rats were maintained on a diet containing 0.5% calcium and 0.4% phosphorus. The light cycle was 12 hours.
The protocol employed is described in schematic form in Table IV. Animals were randomly assigned to 17 groups of 10 as described in the Table. […] For the peptide-treated animals, the peptide was administered daily, subcutaneously at a dose of 40 μg/kg/day, in the vehicle described above. For vehicle-treated animals, vehicle alone was administered in an identical fashion.
Serum and urine chemistries as described in Table XI were performed using standard autoanalyser methods (Boehringer-Mannheim-Hitachi, Indianapolis, Ind.). Kidney calcium content was determined following extraction of whole kidneys in 5% trichloroacetic acid, followed by calcium measurement by calcium analyzer (Calcette, Midfield, Mass.).

[2] = system: ovariectomized osteopenic rats; details: ovariectomized osteopenic rats (Vickery et al.); cited from earlier work
[3] = target: T1, PTH/PTHrP receptors in canine renal membranes (Canis lupus familiaris, UniProt Q9TU31); experiment: Competition binding to canine renal cortical membranes; details: Scatchard analysis of equilibrium binding data
T1 construct: The renal cortex from adult mongrel dogs was homogenized; from tissue; host or cells: renal cortex of adult mongrel dogs, purified membranes
T1 sequence (Q9TU31 29-595): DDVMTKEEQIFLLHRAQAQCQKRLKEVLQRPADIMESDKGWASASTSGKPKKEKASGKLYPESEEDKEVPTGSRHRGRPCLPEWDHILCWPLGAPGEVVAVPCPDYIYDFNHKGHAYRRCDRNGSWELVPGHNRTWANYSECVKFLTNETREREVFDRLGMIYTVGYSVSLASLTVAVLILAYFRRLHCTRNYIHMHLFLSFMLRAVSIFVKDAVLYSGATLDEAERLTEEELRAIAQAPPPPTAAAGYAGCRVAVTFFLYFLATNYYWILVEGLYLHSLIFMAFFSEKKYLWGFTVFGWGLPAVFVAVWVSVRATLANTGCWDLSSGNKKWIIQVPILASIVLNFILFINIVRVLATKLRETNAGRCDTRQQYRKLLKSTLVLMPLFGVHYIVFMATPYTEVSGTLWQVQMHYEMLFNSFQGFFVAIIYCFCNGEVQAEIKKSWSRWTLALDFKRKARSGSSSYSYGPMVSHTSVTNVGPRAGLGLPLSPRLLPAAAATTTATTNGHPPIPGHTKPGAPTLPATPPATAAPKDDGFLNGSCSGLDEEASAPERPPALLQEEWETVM

[4] = system: adenylate cyclase in SaOS-2 membranes; experiment: Adenylate cyclase assay in SaOS-2 cell membranes; format: biochemical, human; details: 30° C., 30 min
Description: (§1) Therefore, dose response curves for each peptide were generated at 30° C. for 10 min in human kidney and 30° C. for 30 min in SaOS-2 membranes. As with the intact cell adenylate cyclase assays, kidney and bone cell membrane adenlyate cyclase assays were performed under binding assay conditions. Results are expresses as percentage of maximal cAMP stimulation in order to compare peptide dose responses from different experiments.
(§2) Statistical differences were assessed by paired and unpaired two-tailed Student's t test.

[5] = system: adenylate cyclase in SaOS-2 intact cells; experiment: Adenylate cyclase assay in SaOS-2 intact cells; format: cell-based, human; details: 15° C., 60 min
Description: Adenylate cyclase-stimulating activity was examined in confluent SAOS-2 cells as previously described for ROS 17/2.8 cells (Merendino et al., Science 231:388-390, (1986)), with the following modification. The intact cell assay was conducted at 15° C., the same conditions employed for binding to intact SaOS-2 cells (vide supra). […] Dose response curves for each peptide were thus generated using 60 min incubations at 15° C. under binding assay conditions.
as §2

[6] = system: adenylate cyclase in canine renal cortical membranes (CRCM); experiment: Canine renal cortical membrane adenylate cyclase assay, standard assay; format: biochemical; details: 30 min, 30° C.
[7] = system: adenylate cyclase in highly purified canine renal membranes; experiment: Canine renal adenylate cyclase assay under binding assay conditions; format: biochemical; details: 20° C., 20 min, with bacitracin
[8] = target: T2, adenylate cyclase in human renal cortical membranes (RCM) (Homo sapiens, UniProt Q03431); experiment: Adenylate cyclase assay in human kidney membranes; format: biochemical; details: both membrane preparations (RCM and SaOS-2 membranes)
T2 sequence (Q03431 27-593): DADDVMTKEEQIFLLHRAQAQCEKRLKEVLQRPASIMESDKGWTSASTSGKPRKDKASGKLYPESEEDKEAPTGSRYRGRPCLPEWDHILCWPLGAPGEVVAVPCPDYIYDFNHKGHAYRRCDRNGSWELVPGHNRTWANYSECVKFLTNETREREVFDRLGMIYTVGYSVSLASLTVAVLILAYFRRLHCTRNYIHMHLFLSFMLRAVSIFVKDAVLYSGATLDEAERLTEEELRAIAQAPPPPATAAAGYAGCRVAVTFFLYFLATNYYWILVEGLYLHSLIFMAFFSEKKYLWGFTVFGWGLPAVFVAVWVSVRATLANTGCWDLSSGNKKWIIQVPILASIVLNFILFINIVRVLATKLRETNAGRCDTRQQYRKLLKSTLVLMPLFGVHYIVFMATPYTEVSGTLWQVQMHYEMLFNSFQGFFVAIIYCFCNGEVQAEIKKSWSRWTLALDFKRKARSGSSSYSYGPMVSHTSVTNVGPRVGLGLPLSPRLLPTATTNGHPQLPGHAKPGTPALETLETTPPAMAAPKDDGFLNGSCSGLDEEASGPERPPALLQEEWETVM
Description: as §1, §2

Substance: SVSEIQLLHDKGKHLASQERVEWLRKKLQDVHTA [SDZ PTH 893, Leu^8, Asp^10, Lys^11, Ala^16, Gln^18, Thr^33, Ala^34hPTH(1-34)]
treated animals that died during the study ([1]; 30 OVX rats per peptide, 40 μg/kg/day, six month study): 13%
renal calcium content, in words ([1]; rat, in vivo): marked increases in renal calcium content

Substance: [MAP1-10]22-31 hPTHrP-(1-34)NH2
anabolic activity versus parent peptide [2]: greater anabolic activity than the parent peptide

Substance: rat (r)PTH-(1-34) [rPTH-(1-34)]
more potent than hPTHrP-(1-36) in stimulating adenylate cyclase [8]: 10 fold
EC50 [4]: 0.09 ± 0.03 nM
EC50 [5]: 0.9 ± 0.1 nM

The next lines start with the values.

Bmax [3]: 2.73±0.31 pmol/mg protein
Substance: [Nle^8,18,Tyr^34]hPTH-(1-34)amide

EC50 [4]: 0.5 ± 0.06 nM
EC50 [5]: 1.2 ± 0.1 nM
potency relative to PTHrP-(1-36) [6]: greater than 6 fold
adenylate cyclase stimulation greater than for PTHrP-(1-36) [7]: 15 fold
Substance: bovine (b)PTH-(1-34) [bPTH-(1-34)]
